Data published in PMC9127750, “Structure-based design of CDC42 effector interaction inhibitors for the treatment of cancer” (Cell reports, 2022).
Where “and” joins values, the source holds several entries; their conditions need not be identical. Equal values may be shown once.

Test system: WM3248 melanoma cells, 486 antibodies
Test: Reverse phase protein arrays (RPPA)
Type: cell-based, Human
Description: Pellets were snap frozen in liquid nitrogen and shipped to MD Anderson Cancer Center core RPPA facility for RPPA analysis (Table S5). Three biological replicates for each sample were generated.
Nomenclatures on the RPPA heatmaps: name_of_antibody.species_of_antibody.status_of_antibody. V - antibody validated; C - validation of antibody in progress; Q - antibody nonspecific; E – under evaluation; antibodies raised in M - mouse, G - goat, R - rabbit, or T - rat.

Question: What does the source list for `CN(C)c1cccc(Nc2cc(-c3ccccc3)nc(C3CCNCC3)n2)c1` [ARN22089, N1,N1-dimethyl-N3-(6-phenyl-2-(piperidin-4-yl)pyrimidin-4-yl)benzene-1,3-diamine]?
Answer: CD31.M.V normalized signal (Norm_10 Average): 0.960; CD38.R.C normalized signal (Norm_10 Average): 0.936; CD45.M.V normalized signal (Norm_10 Average): 0.964; CD68.M.C normalized signal (Norm_10 Average): 1.001; CD134.R.V normalized signal (Norm_10 Average): 0.970; CD171.M.V normalized signal (Norm_10 Average): 0.831; CDK1_pT14.R.C normalized signal (Norm_10 Average): 0.888; CDK9.R.V normalized signal (Norm_10 Average): 0.988; CDKN2A.R.C normalized signal (Norm_10 Average): 0.963; CDT1.R.V normalized signal (Norm_10 Average): 0.925; CENP.A.R.V normalized signal (Norm_10 Average): 0.967; CHD1L.R.V normalized signal (Norm_10 Average): 1.025; COG3.R.V normalized signal (Norm_10 Average): 1.013; CRABP1.R.C normalized signal (Norm_10 Average): 0.993; CRABP2.R.V normalized signal (Norm_10 Average): 0.915; CSK.R.C normalized signal (Norm_10 Average): 0.971; Calnexin.R.V normalized signal (Norm_10 Average): 1.021; Caspase.3.cleaved.R.C normalized signal (Norm_10 Average): 0.926; Caspase.7.cleaved..R.C normalized signal (Norm_10 Average): 1.030; Caspase.8.M.Q normalized signal (Norm_10 Average): 0.998; Caspase.8.cleaved.R.C normalized signal (Norm_10 Average): 0.924; Cdc6.R.V normalized signal (Norm_10 Average): 0.962; Cdc42.R.C normalized signal (Norm_10 Average): 0.966; Chk1.M.C normalized signal (Norm_10 Average): 0.942; Chk1_pS296.R.V normalized signal (Norm_10 Average): 0.948; Chk1_pS345.R.C normalized signal (Norm_10 Average): 1.019; Chk2.M.V normalized signal (Norm_10 Average): 0.971; Chk2_pT68.R.C normalized signal (Norm_10 Average): 0.963; Claudin.7.R.V normalized signal (Norm_10 Average): 1.252; Collagen.VI.R.V normalized signal (Norm_10 Average): 1.085; Complex.II.Subunit.M.V normalized signal (Norm_10 Average): 1.079; Connexin.43.R.C normalized signal (Norm_10 Average): 1.004; Cox2.R.C normalized signal (Norm_10 Average): 1.057; Creb.R.C normalized signal (Norm_10 Average): 0.975; CtIP.R.V normalized signal (Norm_10 Average): 0.953; Cyclin.B1.R.V normalized signal (Norm_10 Average): 0.844; Cyclin.D1.R.C normalized signal (Norm_10 Average): 1.008; Cyclin.D3.M.V normalized signal (Norm_10 Average): 0.934; Cyclophilin.F.M.V normalized signal (Norm_10 Average): 0.980; DAPK1_pS308.M.C normalized signal (Norm_10 Average): 1.809; DAPK2.R.C normalized signal (Norm_10 Average): 0.982; DDB.1.R.V normalized signal (Norm_10 Average): 0.823; DDR1.R.V normalized signal (Norm_10 Average): 1.020; DDR1_pY513.R.C normalized signal (Norm_10 Average): 1.009; DJ1.R.V normalized signal (Norm_10 Average): 0.997; DM.Histone.H3.R.V normalized signal (Norm_10 Average): 0.900; DM.K9.Histone.H3.M.V normalized signal (Norm_10 Average): 0.982; DNA.Ligase.IV.R.C normalized signal (Norm_10 Average): 0.937; DNA_POLG.R.V normalized signal (Norm_10 Average): 1.080; c.Jun_pS73.R.V normalized signal (Norm_10 Average): 0.793; c.Kit.R.V normalized signal (Norm_10 Average): 1.213; c.Met_pY1234_Y1235.R.V normalized signal (Norm_10 Average): 0.933; c.Myc.R.C normalized signal (Norm_10 Average): 1.350; cdc2_pY15.R.C normalized signal (Norm_10 Average): 0.855; cdc25C.R.V normalized signal (Norm_10 Average): 0.849; C.Raf.R.C normalized signal (Norm_10 replicates): 1.081 and 0.699 and 0.805; C.Raf_pS338.R.V normalized signal (Norm_10 replicates): 0.823 and 0.996; CA9.R.C normalized signal (Norm_10 replicates): 0.873 and 0.916; CD2.M.C normalized signal (Norm_10 replicates): 0.952 and 0.983 and 0.955; CD4.R.V normalized signal (Norm_10 replicates): 0.995 and 0.882 and 0.915; CD5.M.C normalized signal (Norm_10 replicates): 0.953 and 1.022; CD20.R.C normalized signal (Norm_10 replicates): 0.859 and 1.349 and 1.680; CD26.R.V normalized signal (Norm_10 replicates): 0.886 and 0.919 and 1.217; CD29.M.V normalized signal (Norm_10 replicates): 0.978 and 0.970; CD31.M.V normalized signal (Norm_10 replicates): 0.934 and 1.028 and 0.917; CD38.R.C normalized signal (Norm_10 replicates): 1.013 and 0.750 and 1.046; CD44.R.C normalized signal (Norm_10 replicates): 0.886 and 1.140; CD45.M.V normalized signal (Norm_10 replicates): 0.989 and 0.991; CD49b.M.V normalized signal (Norm_10 replicates): 1.113 and 1.053; CD68.M.C normalized signal (Norm_10 replicates): 0.973 and 0.957; CD74.M.V normalized signal (Norm_10 replicates): 0.883 and 1.031 and 0.993; CD134.R.V normalized signal (Norm_10 replicates): 0.926 and 1.018 and 0.966; CD171.M.V normalized signal (Norm_10 replicates): 0.567 and 1.011 and 0.915; CDK1_pT14.R.C normalized signal (Norm_10 replicates): 0.950 and 0.703 and 1.011; CDK9.R.V normalized signal (Norm_10 replicates): 0.925 and 1.065 and 0.973; CDKN2A.R.C normalized signal (Norm_10 replicates): 0.890 and 1.007 and 0.992; CDT1.R.V normalized signal (Norm_10 replicates): 0.844 and 1.019; CENP.A.R.V normalized signal (Norm_10 replicates): 0.909 and 0.955; CHD1L.R.V normalized signal (Norm_10 replicates): 0.986 and 0.996; CIITA.R.C normalized signal (Norm_10 replicates): 0.878 and 1.138 and 1.266; COG3.R.V normalized signal (Norm_10 replicates): 1.048 and 1.011 and 0.981
